*1 amine or outer side, *2 acyl side, *3 side chain or, on linkers, in order; H or OH if unused. Where a SMILES comes first, the peptide text is derived from it. Bridges are numbered along the chain shown (N, C = ends). Roman numbers before positions name the chains, in order. [ ]: non-standard residue; d: D form. ξ: configuration not given here. CO(CH2CH2O)13CH2CH2CO = O=C(CCOCCOCCOCCOCCOCCOCCOCCOCCOCCOCCOCCOCCOCCC(=O)[*:2])[*:1]; X4 = NC(=O)C(CCCCNC(=O)CCOCCC(=O)[*:1])NC(=O)CCOCCOCCOCCOCCOCCCCCOCCOCCN[*:2]; X3 = CC(C)[C@H](CC(=O)[C@H](Cc1cccnc1)N[*:1])C(=O)[*:2]; PEG8 = NCCOCCOCCOCCOCCOCCOCCOCCOCCC(=O)O; 3Pal = N[C@@H](Cc1cccnc1)C(=O)O; Thr(3ξ) = CC(O)[C@H](N)C(=O)O; ξP = O=C(O)C1CCCN1; ξC = NC(CS)C(=O)O
Tests used:
Format in all cases: cell-based
[1] = target: T1, TrkB (CellSensor TrkB-NFAT-bla CHO-K1 Cell) (Homo sapiens, UniProt Q16620); assay: NFAT transcriptional reporter assay for TrkB agonist activity; details: class = peptide concentration giving 50% or more activity; BDNF maximum signal = 100%, no stimulation = 0%; 5 hours culture
T1 construct: host or cells: CHO-K1 (CellSensor TrkB-NFAT-bla CHO-K1)
Protocol: To evaluate the TrkB activation potency of the TrkB agonist peptide of the present invention, transcriptional activity was examined using transcriptional reporters. The CellSensor (registered trademark) TrkB-NFAT-bla CHO-K1 Cell (Invitrogen) used in the AlphaLISA assay was cultured in the medium above. After the cells were detached using Accutase (Innovative Cell Technologies), the cells were suspended in an assay medium, wherein Blasticidin and Zeocin were removed, then seeded into a 96-well plate for adherent cultures at 12,500 cells per well and cultured overnight. Then, BDNF or a peptide was added thereto, and the cells were further cultured in a CO2 incubator for 5 hours. After the 96-well plate was removed from the incubator and brought to room temperature, a detection reagent (LiveBLAzer (registered trademark)-FRET B/G (CCF4-AM) Substrate Mixture) was added while protected from the light, and the 96-well plate was incubated while protected from the light in a moisture box with a lid for 2 hours. For signal detection, a EnVision 2104 Multilabel Plate Reader (PerkinElmer) was used, and the ratio of fluorescence emission value (460 nm/535 nm) was calculated. The obtained numerical values were analyzed with GraphPad Prism, and the activity (%) was calculated with the maximum value of the signals induced by BDNF as 100% and a signal with no stimulation as 0%. The peptide with 50% or more activity when 1 nM of the peptide was added was evaluated as A, the peptide with 50% or more activity when 10 nM of the peptide was added was evaluated as B, and the peptide with 50% or more activity when 100 nM of the peptide was added was evaluated as C. Those that were not evaluated were listed as not tested.
The BDNF was evaluated at 7 points (0.0024 nM to 10 nM) from 10 nM using 4-fold dilutions.
For dimer structures Nos. 1 to 3, the peptide was evaluated at 1 nM, 10 nM, and 100 nM, and, for other dimer structure numbers, the peptide was evaluated at 0.1 nM, 1 nM, and 10 nM. When creating the concentration dependence curve, the BDNF and the peptides were evaluated at […] (0.006 nM to 100 nM) […] using 4-fold dilutions.

[2] = target: T1, TrkB (CellSensor TrkB-NFAT-bla CHO-K1 Cell); assay: pERK1/2 AlphaLISA assay (phosphorylation of ERK) for TrkB agonist activity; details: class = peptide concentration giving 50% or more activity; BDNF maximum signal = 100%, no stimulation = 0%; 15 minutes of stimulation
Protocol: To evaluate the TrkB activation potency of the TrkB agonist peptide of the present invention, the phosphorylation of ERK was examined. CellSensor (registered trademark) TrkB-NFAT-bla CHO-K1 Cell (Invitrogen) was cultured in DMEM, high glucose, GlutaMAX (registered trademark) Supplement, and pyruvate (Thermo), comprising 10% FBS (Thermo) and 1× Non-essential amino acids (Thermo), 25 mM HEPES (Thermo), 50 ug/mL Gentamicin, 5 ug/mL Blasticidin (Thermo), and 200 ug/mL Zeocin (Thermo). After the cells were detached using Accutase (Innovative Cell Technologies), they were seeded into a 96-well plate for adherent cultures at 12,500 cells per well and cultured overnight. The next day, for starvation, the culture solution above was replaced with a nutrient starvation medium comprising 0.1% BSA (Sigma), wherein FBS, Blasticidin, and Zeocin were removed from the culture medium, and culturing was performed for 4 hours. Thereafter, Recombinant Human BDNF Protein (R&D Systems) or a peptide was added, and after 15 minutes of stimulation, cells were lysed in the Lysis Buffer provided with the AlphaLISA SureFire Ultra p-Erk1/2 (Thr202/Tyr204) assay kit (PerkinElmer). The assay was performed according to the kit protocol. The signals were detected using a SpectraMax Paradigm Multi-Mode Microplate Reader (Molecular Devices). The obtained signals were analyzed with GraphPad Prism, and the activity (%) was calculated with the maximum value of the signals induced by BDNF as 100% and a signal with no stimulation as 0%. The peptide with 50% or more activity when 1 nM of the peptide was added was evaluated as A, and the peptide with 50% or more activity when 10 nM of the peptide was added was evaluated as B.
The BDNF was evaluated at 8 points (0.0006 nM to 10 nM) from 10 nM using 4-fold dilutions.
For dimer structures Nos. 1 to 3, the peptide was evaluated at 1 nM, 10 nM, and 100 nM, and, for other dimer structure numbers, the peptide was evaluated at 0.1 nM, 1 nM, and 10 nM. When creating the concentration dependence curve, the BDNF and the peptides were evaluated at 8 points (0.006 nM to 100 nM) from 100 nM using 4-fold dilutions.

TrkB = TrkB (Homo sapiens, UniProt Q16620); assay: PathHunter eXpress TrkB Functional Assay (phosphorylation of TrkB); details: stimulation for 3 hours
Protocol: To evaluate the TrkB activation potency of the TrkB agonist peptide of the present invention, the phosphorylation of TrkB was examined. The PathHunter (registered trademark) eXpress TrkB Functional Assay kit (DiscoverX; cells, 96-well plate, medium, and detection reagents included) was used and the evaluation was performed according to the attached protocols. The frozen cells were thawed and suspended in the medium, then seeded into a 96-well plate at 10,000 cells per well and incubated for 48 hours. Thereafter, Recombinant Human BDNF Protein (R&D Systems) or a peptide was added, and after stimulation for 3 hours, a detection reagent was added. The reaction was performed while protected from the light at room temperature for 60 minutes, and luminescent signals were measured using a SpectraMax Paradigm Multi-Mode Microplate Reader (Molecular Devices). The obtained signals were analyzed with GraphPad Prism, and the activity (%) was calculated with the maximum value of the signals induced by BDNF as 100% and a signal with no stimulation as 0%.
The BDNF was evaluated at 8 points (0.006 nM to 100 nM) from 100 nM using 4-fold dilutions. The peptide was evaluated in the measurement ranges A to C shown below. • Measurement range A=6 points from 100 nM using 5-fold dilutions (0.032 nM to 100 nM) • Measurement range B=8 points from 100 nM using 4-fold dilutions (0.006104 nM to 100 nM) • Measurement range C=4 points from 10 nM using 10-fold dilutions (0.01 nM to 10 nM)

T1 sequence (Q16620 32-822): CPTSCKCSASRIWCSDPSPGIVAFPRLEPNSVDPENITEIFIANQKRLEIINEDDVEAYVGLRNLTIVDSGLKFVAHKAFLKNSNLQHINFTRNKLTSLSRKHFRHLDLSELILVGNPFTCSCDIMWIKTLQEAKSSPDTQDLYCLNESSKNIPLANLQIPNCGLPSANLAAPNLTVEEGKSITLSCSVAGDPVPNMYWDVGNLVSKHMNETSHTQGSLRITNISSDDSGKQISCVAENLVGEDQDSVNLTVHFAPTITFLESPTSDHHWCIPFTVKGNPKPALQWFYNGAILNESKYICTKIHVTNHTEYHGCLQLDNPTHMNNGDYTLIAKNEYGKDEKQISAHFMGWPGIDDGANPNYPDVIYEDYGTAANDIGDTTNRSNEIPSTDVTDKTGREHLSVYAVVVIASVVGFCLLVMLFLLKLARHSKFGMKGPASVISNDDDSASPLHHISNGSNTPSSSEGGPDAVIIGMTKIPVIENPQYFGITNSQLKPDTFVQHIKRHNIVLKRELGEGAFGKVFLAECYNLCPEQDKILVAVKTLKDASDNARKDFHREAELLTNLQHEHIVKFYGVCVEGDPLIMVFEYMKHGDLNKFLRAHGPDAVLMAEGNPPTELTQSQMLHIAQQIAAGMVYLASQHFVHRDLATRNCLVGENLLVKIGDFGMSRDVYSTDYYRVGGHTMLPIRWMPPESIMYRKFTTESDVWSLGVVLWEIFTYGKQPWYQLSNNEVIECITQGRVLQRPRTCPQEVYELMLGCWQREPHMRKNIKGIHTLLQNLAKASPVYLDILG
Chain of TrkB (Q16620 32-822): as above

CC(C)C[C@@H]1NC(=O)[C@H](CO)NC(=O)[C@H](Cc2ccc(O)cc2)NC(=O)[C@H]([C@@H](C)O)NC(=O)[C@@H]2CCCN2C(=O)[C@H](Cc2c[nH]c3ccccc23)NC(=O)[C@H](Cc2cccnc2)NC(=O)[C@H](Cc2ccc(O)cc2)NC(=O)[C@@H]2CCCN2C(=O)[C@H](CC(C)C)NC(=O)[C@H](Cc2ccccc2)NC(=O)CSC[C@@H](C(=O)NCC(=O)NCCOCCOCCOCCOCCOCCOCCOCCOCCC(=O)NCCCC[C@H](NC(=O)CCOCCOCCOCCOCCOCCOCCOCCOCCNC(=O)CNC(=O)[C@@H]2CSCC(=O)N[C@@H](Cc3ccccc3)C(=O)N[C@@H](CC(C)C)C(=O)N3CCC[C@H]3C(=O)N[C@@H](Cc3ccc(O)cc3)C(=O)N[C@@H](Cc3cccnc3)C(=O)N[C@@H](Cc3c[nH]c4ccccc34)C(=O)N3CCC[C@H]3C(=O)N[C@@H]([C@@H](C)O)C(=O)N[C@@H](Cc3ccc(O)cc3)C(=O)N[C@@H](CO)C(=O)N[C@@H](CC(C)C)C(=O)N[C@@H](Cc3cccnc3)C(=O)N[C@@H](C(C)C)C(=O)N[C@@H](Cc3c[nH]c4ccccc34)C(=O)N2)C(N)=O)NC(=O)[C@H](Cc2c[nH]c3ccccc23)NC(=O)[C@H](C(C)C)NC(=O)[C@H](Cc2cccnc2)NC1=O [Dimer Structure No. 2] (I: {CH2CO}-FLPY[3Pal]WPTYSL[3Pal]VWCG[PEG8]K-NH2 / II: {CH2CO}-FLPY[3Pal]WPTYSL[3Pal]VWCG[PEG8]; amide I:18-II:C; thioether I:N-I:15, II:N-II:15)
NFAT Assay Results [1]: C (the peptide with 50% or more activity when 100 nM of the peptide was added was evaluated as C)
pERK (aLISA) Assay Results [2]: B (the peptide with 50% or more activity when 10 nM of the peptide was added was evaluated as B)

CC(=O)NCCCC[C@@H]1NC(=O)[C@H](CO)NC(=O)[C@H](Cc2ccc(O)cc2)NC(=O)[C@H]([C@@H](C)O)NC(=O)[C@@H]2CCCN2C(=O)[C@H](Cc2c[nH]c3ccccc23)NC(=O)[C@H](Cc2cccnc2)NC(=O)[C@H](Cc2ccc(O)cc2)NC(=O)[C@@H]2CCCN2C(=O)[C@H](CC(C)C)NC(=O)[C@H](Cc2ccccc2)NC(=O)CSCC(C(=O)NCC(=O)NCCOCCOCCOCCOCCOCCOCCOCCOCCC(=O)N[C@@H](CCCCNC(=O)CCOCCC(=O)NCCCCC(NC(=O)CCOCCOCCOCCOCCOCCCCCOCCOCCNC(=O)CNC(=O)C2CSCC(=O)N[C@@H](Cc3ccccc3)C(=O)N[C@@H](CC(C)C)C(=O)N3CCC[C@H]3C(=O)N[C@@H](Cc3ccc(O)cc3)C(=O)N[C@@H](Cc3cccnc3)C(=O)N[C@@H](Cc3c[nH]c4ccccc34)C(=O)N3CCC[C@H]3C(=O)N[C@@H](C(C)O)C(=O)N[C@@H](Cc3ccc(O)cc3)C(=O)N[C@@H](CO)C(=O)N[C@@H](CCCCNC(C)=O)C(=O)N[C@@H](Cc3cccnc3)C(=O)N[C@@H](C(C)C)C(=O)N[C@@H](CCC(=O)O)C(=O)N2)C(N)=O)C(N)=O)NC(=O)[C@H](CCC(=O)O)NC(=O)[C@H](C(C)C)CC(=O)[C@H](Cc2cccnc2)NC1=O (some centres unmarked) [Dimer Structure No. 40] (I: {CH2CO}-FLPY[3Pal]WPTYSK(Ac)[X3]E[ξC]G[PEG8]K-NH2 / II: {CH2CO}-FLPY[3Pal]WP[Thr(3ξ)]YSK(Ac)[3Pal]VE[ξC]G; linker I:17-II:C via X4; thioether I:N-I:14, II:N-II:15)
NFAT Assay Results [1]: B (the peptide with 50% or more activity when 10 nM of the peptide was added was evaluated as B)
pERK (aLISA) Assay Results [2]: B (the peptide with 50% or more activity when 10 nM of the peptide was added was evaluated as B)

CC(C)[C@@H]1NC(=O)[C@H](Cc2cccnc2)NC(=O)[C@H](CCC(=O)O)NC(=O)[C@H](CO)NC(=O)[C@H](Cc2ccc(O)cc2)NC(=O)[C@H]([C@@H](C)O)NC(=O)C2CCCN2C(=O)[C@H](Cc2c[nH]c3ccccc23)NC(=O)[C@H](Cc2cccnc2)NC(=O)[C@H](Cc2ccc(O)cc2)NC(=O)[C@@H]2CCCN2C(=O)[C@H](CO)NC(=O)[C@H](Cc2ccccc2)NC(=O)CSC[C@@H](C(=O)NCC(=O)N[C@@H](CCCCNC(=O)CCOCCOCCOCCOCCOCCOCCOCCOCCOCCOCCOCCOCCOCCC(=O)NCCCC[C@H](NC(=O)CNC(=O)[C@@H]2CSCC(=O)N[C@@H](Cc3ccccc3)C(=O)N[C@@H](CO)C(=O)N3CCC[C@H]3C(=O)N[C@@H](Cc3ccc(O)cc3)C(=O)N[C@@H](Cc3cccnc3)C(=O)N[C@@H](Cc3c[nH]c4ccccc34)C(=O)N3CCC[C@H]3C(=O)N[C@@H]([C@@H](C)O)C(=O)N[C@@H](Cc3ccc(O)cc3)C(=O)N[C@@H](CO)C(=O)N[C@@H](CCC(=O)O)C(=O)N[C@@H](Cc3cccnc3)C(=O)N[C@@H](C(C)C)C(=O)N[C@@H](CCC(=O)O)C(=O)N2)C(N)=O)C(N)=O)NC(=O)[C@H](CCC(=O)O)NC1=O (some centres unmarked) [Dimer Structure No. 48] (I: {CH2CO}-FSPY[3Pal]WPTYSE[3Pal]VECGK-NH2 / II: {CH2CO}-FSPY[3Pal]W[ξP]TYSE[3Pal]VECGK-NH2; linker I:17-II:17 via CO(CH2CH2O)13CH2CH2CO; thioether I:N-I:15, II:N-II:15)
NFAT Assay Results [1]: B (the peptide with 50% or more activity when 10 nM of the peptide was added was evaluated as B)
pERK (aLISA) Assay Results [2]: B (the peptide with 50% or more activity when 10 nM of the peptide was added was evaluated as B)
Emax (TrkB; maximum signal induced by BDNF = 100%): 89%
EC50 (TrkB): 0.8 to 4 nM
